Experimental data published in PubChem BioAssay (NCI).
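96-well plates; 48 h exposure; 5 concentrations. Endpoints by linear interpolation between flanking doses. Not reached: highest tested concentration assigned. TGI marks complete inhibition of growth.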

Tests used:
Test in all cases: NCI-60 cell line screen, 48 h
[1] = system: DMS 114 small cell lung
[2] = system: DMS 273 small cell lung
[3] = system: KM20L2 colon
[4] = system: M19-MEL melanoma
[5] = system: SNB-78 CNS
[6] = system: HOP-18 NSCLC
[7] = system: DU-145 prostate
[8] = system: HS 578T breast
[9] = system: MDA-MB-231 breast
[10] = system: MDA-MB-435
[11] = system: T-47D breast

Compound | TGI [1] [µM] | TGI [2] [µM] | TGI [3] [µM] | TGI [4] [µM] | TGI [5] [µM] | TGI [6] [µM] | TGI [7] [µM] | TGI [8] [µM] | TGI [9] [µM] | TGI [10] [µM] | TGI [11] [µM]
CC(C)(C)NCC(COc1ccc([N+](=O)[O-])cc1)OP(c1ccccc1)c1ccccc1 (centres undefined) | 83.9 | > 100 | > 100 | > 100 | > 100 | – | – | – | – | – | –
O=C1[C@H]2ON(c3ccccc3)C(c3ccco3)[C@H]2C(=O)N1c1ccc(Cc2ccc(N3C(=O)[C@@H]4ON(c5ccccc5)C(c5ccco5)[C@@H]4C3=O)cc2)cc1 (some centres undefined) | > 100 | > 100 | > 100 | > 100 | > 100 | > 100 | – | – | – | – | –
COc1ccc(-c2c(C3=NCCCN3)nnn2-c2ccc([N+](=O)[O-])cc2)cc1 | > 100 | > 100 | > 100 | > 100 | > 100 | > 100 | – | – | – | – | –
CCCCCCCCCCCCCCCCCCOCC(COCCOCC[N+]1(CCCCCC(=O)[O-])CCCC1)Oc1ncccn1 (centres undefined) | 7.1 | 2.26 | 14.5 | 1.33 | 4.52 | 13.7 | 27.2 | 28.8 | 21.7 | 25 | 21.2
Cc1c(C)c(CC(=O)N2CC2)c(C)c(C)c1CC(=O)N1CC1 | 24.5 | 13.2 | 47.3 | 27.4 | 57.3 | 75.3 | 15.8 | 81.9 | 48.1 | 33.6 | 80.5
O=c1[nH]c2cc([N+](=O)[O-])ccc2nc1/C(=N\Nc1ccccc1)C(O)c1ccc2c(c1)OCO2 (centres undefined) | > 100 | > 100 | > 100 | > 100 | > 100 | – | – | – | – | – | –
COc1ccccc1NC(=O)/C(=C/c1ccccc1)C(C)=O | > 100 | – | – | > 100 | 44.6 | > 100 | – | – | – | – | –
C=C1C(=O)C23C(O)C1CC[C@H]2C12CCCC(C)(COC(C)=O)[C@H]1[C@H](O)[C@]3(O)OC2 (some centres undefined) | 4.35 | 4.22 | 3.01 | 4.69 | 2.96 | 2.54 | 16.2 | 9.99 | – | – | 9.59
CC1(C)CC(=O)C(CC2C(=O)c3ccccc3C2=O)C(=O)C1 | > 100 | > 100 | > 100 | > 100 | > 100 | > 100 | – | – | – | – | –
Cc1ccccc1/C=C/C(=O)c1ccccc1 | 48 | 61.2 | 33.6 | 61 | 39.2 | – | – | – | – | – | –
C[C@]12C/C(=C/O)C(=O)C(O)=C1CC[C@@H]1C2CC[C@@]2(C)C1CC[C@@H]2O (some centres undefined) | 37.5 | 51.1 | 54.6 | 45.3 | 47.3 | > 100 | – | – | – | – | –
Cc1cccc(C)c1N1C(=O)C(=O)C(c2nc3ccccc3s2)/C(=N/NC(=O)NN)C1=O (centres undefined) | > 100 | > 100 | > 100 | > 100 | > 100 | > 100 | – | – | – | – | –
O=C1CNS(=O)(=O)N1 | > 100 | > 100 | – | > 100 | > 100 | – | – | – | – | – | –
C=CCNC(=O)N(CCC)CCCC(NC(C)=O)C(=O)NCc1ccccc1 (centres undefined) | > 100 | > 100 | > 100 | > 100 | – | > 100 | – | – | – | – | –
CC1=NN(C(=O)c2ccncc2)C(=O)C1N=Nc1ccc(F)cc1 (centres undefined) | > 100 | > 100 | > 100 | > 100 | > 100 | – | – | – | – | – | –
CCCCCCC(C)CCCCCCCCCCC(=O)O (centres undefined) | > 100 | > 100 | > 100 | > 100 | – | > 100 | – | – | – | – | –
CC1(O)CCn2c(=O)c3cc4ccccc4cc3c(=O)n2C1O (centres undefined) | > 100 | > 100 | > 100 | > 100 | – | > 100 | – | – | – | – | –
Cc1c(C(=O)/C=C/c2ccccc2[N+](=O)[O-])[n+](=O)c2ccccc2n1[O-] | 18 | 16.8 | 18 | 20.5 | 70.7 | 28.7 | – | – | – | – | –
Cn1c(=O)nc2n(-c3ccc(Cl)c(C(F)(F)F)c3)c3ccccc3nc-2c1=O | 40.6 | > 100 | 73.9 | 27.8 | > 100 | > 100 | – | – | – | – | –
CC(C)(C)c1ccc(OC2CCO2)cc1 (centres undefined) | > 100 | > 100 | 52.8 | 56.1 | > 100 | > 100 | – | – | – | – | –
CCOC(OC1=C(C#N)CCCC1)C(CC)[Se]c1ccccc1 (centres undefined) | 15.4 | 24.9 | 62.1 | 48.7 | 89.7 | 54.1 | – | – | – | – | –
N#CC(C#N)=c1c2nsnc2c(=C(C#N)C#N)c2nsnc12 | 3.93 | 3.24 | 3.26 | – | 3.28 | 5.09 | – | – | – | – | –
O=S1CSSC1 | 19.1 | 25.1 | 52.5 | 14.4 | 62 | > 100 | – | – | – | – | –
CCCCCCCCCCCC1CC(=O)NCCCN(C)CCCCN(C)CCCN1C (centres undefined) | 3.19 | 2.61 | 3.01 | 3.24 | 3.27 | 3.17 | – | – | – | – | –
Cc1c2ccncc2c(C)c2c1[nH]c1ccc(O)c(OCC(F)(F)F)c12 | 10.7 | 4.87 | 27.3 | – | 18.2 | – | – | – | – | – | –
Cc1nc(-c2cccnc2)sc1C(=O)/C=C/c1cccc([N+](=O)[O-])c1 | > 100 | > 100 | > 100 | > 100 | – | > 100 | – | – | – | – | –
COc1cc(C2c3cc4c(cc3[C@@H](Nc3ccc5c(c3)OCCO5)C3COC(=O)[C@H]23)OCO4)cc(OC)c1O (some centres undefined) | 3.42 | 1.87 | 9.05 | > 35.9 | > 34.2 | > 100 | > 100 | – | > 100 | – | –
CC(=O)n1c(=O)c2cc3c(=O)n(-c4cccc(C#N)c4)c(=O)c3cc2c1=O | > 100 | > 100 | > 100 | > 100 | > 100 | > 100 | – | – | – | – | –
O=C(CC1(O)C(=O)Nc2c(Cl)ccc(Cl)c21)c1ccc(Cl)cc1Cl (centres undefined) | 37.4 | 37.8 | > 100 | 20.1 | > 100 | > 100 | – | – | – | – | –
